Here are results for 4 compounds from patent US20040224914A1, “Method for treatment of angiogenic disorders” (The University of British Columbia, priority 2003, published 2004).

Series [1] has as its system HUVECS. As to the kind of experiment: HUVECS cell viability (mts) after antisense with or without drug. The class given is cell-based, human. As for the experimental part:
HUVECS were grown for 2 days in wells after seeding at 1200 per well. Antisense oligonucleotide of Seq. ID No. 5 (4 μg/ml with LIPOFECTIN™) was added in serum free medium and incubated with the cells for 4 hours. Then 100 μl of serum was added and incubation was continued overnight. The next day, 150 μl of drug solution in serum medium was added. After two days, 20 μl of mts solution was added and left for approximately 3 hours. Cell viability was determined as the difference between absorption at 490 and 595 nm.

Series [2] concerns HUVECS. Conditions: by the induction of apoptosis; cited from earlier work.
Where [3] appears, read: Table 1 series, AS 50 nM, no drug.
[4] abbreviates: Table 1 series, AS 100 nM, no drug.
Where [5] appears, read: Table 1 series, AS 200 nM, no drug.
[6] abbreviates: Table 1 series, Drug (100 nM paclitaxel) + AS 50 nM.
[7] abbreviates: Table 1 series, Drug (100 nM paclitaxel) + AS 100 nM.
Where [8] appears, read: Table 1 series, Drug (100 nM paclitaxel) + AS 200 nM.
[9] abbreviates: Table 2 series, AS 50 nM, no drug.
Setting [10] is: Table 2 series, AS 100 nM, no drug.
The mark [11] stands for this setting: Table 2 series, AS 200 nM, no drug.
[12] abbreviates: Table 2 series, Drug (100 nM camptothecin) + AS 50 nM.
Setting [13] is: Table 2 series, Drug (100 nM camptothecin) + AS 100 nM.
Where [14] appears, read: Table 2 series, Drug (100 nM camptothecin) + AS 200 nM.
Where [15] appears, read: Table 3 series, AS 50 nM, no drug.
The mark [16] stands for this setting: Table 3 series, AS 100 nM, no drug.
[17] abbreviates: Table 3 series, AS 200 nM, no drug.
Setting [18] is: Table 3 series, Drug (200 nM doxorubicin) + AS 50 nM.
The mark [19] stands for this setting: Table 3 series, Drug (200 nM doxorubicin) + AS 100 nM.
Setting [20] is: Table 3 series, Drug (200 nM doxorubicin) + AS 200 nM.
[21] abbreviates: Table 3 series, Drug alone (200 nM doxorubicin).
Where [22] appears, read: Table 1 series, Drug alone (100 nM paclitaxel).
Where [23] appears, read: Table 2 series, Drug alone (100 nM camptothecin).

With “AS: Antisense oligonucleotide of Seq. ID No. 5, which reduces the effective amount of clusterin (antisense CAGCAGCAGAGTCTTCATCAT; listed as DNA, chemistry not given here)”, the “cell viability response to antisense concentration” value is reported as “dose dependent response” in the series with HUVECS [1] (FIG. 1, paclitaxel series); “dose dependent response” in the series with HUVECS [1] (FIG. 2, camptothecin series); “dose dependent response” in the series with HUVECS [1] (FIG. 3, doxorubicin series). In addition, the “cell viability response to antisense in the presence of drug versus absence” value is recorded as “the response is greater” with HUVECS [1] (FIG. 1, in the presence of 100 nM paclitaxel); “the response is greater” in the series with HUVECS [1] (FIG. 2, in the presence of 100 nM camptothecin); “the response is greater” in the series with HUVECS [1] (FIG. 3, in the presence of 200 nM doxorubicin). Moreover, the “absorbance at 490 nm (mts, cell viability)” value (from here on “absorbance at 490 nm”) in the series on HUVECS [1] (setting [3]) stood at 0.66; with HUVECS [1] (setting [4]) it was 0.40; in the series on HUVECS [1] (setting [5]) it was 0.28; with HUVECS [1] (setting [6]), 0.50; in the series with HUVECS [1] (setting [7]) it was 0.24; in the series with HUVECS [1] (setting [8]) it was 0.17. Besides, the “absorbance at 490 nm” value in the series with HUVECS [1] (setting [9]) is 0.66; in the series with HUVECS [1] (setting [10]), 0.39; in the series with HUVECS [1] (setting [11]), 0.21; in the series with HUVECS [1] (setting [12]), 0.53; in the series on HUVECS [1] (setting [13]) it was 0.31; in the series with HUVECS [1] (setting [14]), 0.15. For the same compound, the “absorbance at 490 nm” value in the series on HUVECS [1] (setting [15]) was found to be 0.66; in the series on HUVECS [1] (setting [16]), 0.35; with HUVECS [1] (setting [17]), 0.22; in the series with HUVECS [1] (setting [18]), 0.66; in the series with HUVECS [1] (setting [19]), 0.32; in the series with HUVECS [1] (setting [20]), 0.18. For the same compound, the “absorbance at 595 nm (mts, cell viability)” value (“absorbance at 595 nm” below) is given as 0.04 in the series with HUVECS [1] (setting [3]); 0.09 with HUVECS [1] (setting [4]); 0.07 in the series with HUVECS [1] (setting [5]); 0.09 in the series on HUVECS [1] (setting [6]); 0.04 with HUVECS [1] (setting [7]); 0.05 in the series on HUVECS [1] (setting [8]). Also, the “absorbance at 595 nm” value is recorded as 0.10 in the series with HUVECS [1] (setting [9]); 0.06 with HUVECS [1] (setting [10]); 0.04 in the series with HUVECS [1] (setting [11]); 0.07 in the series with HUVECS [1] (setting [12]); 0.08 in the series with HUVECS [1] (setting [13]); 0.05 in the series with HUVECS [1] (setting [14]). Moreover, the “absorbance at 595 nm” value in the series on HUVECS [1] (setting [15]) is 0.07; in the series on HUVECS [1] (setting [16]), 0.05; in the series with HUVECS [1] (setting [17]), 0.04; in the series with HUVECS [1] (setting [18]), 0.06; in the series with HUVECS [1] (setting [19]) it was 0.04; in the series on HUVECS [1] (setting [20]), 0.02. In the series with HUVECS [1] (paclitaxel, camptothecin, doxorubicin, downregulation of clusterin), the “effect of antisense on inhibition of cell proliferation induced by antiproliferative drugs” value is listed as “enhanced”.

For `COc1cccc2c1C(=O)c1c(O)c3c(c(O)c1C2=O)C[C@@](O)(C(=O)CO)C[C@@H]3O[C@H]1C[C@H](N)[C@H](O)[C@H](C)O1` [doxorubicin, reference compound], in the series with HUVECS [1] (setting [21]), the “absorbance at 490 nm” value worked out at 0.74 and the “absorbance at 595 nm” value is recorded as 0.08. Moreover, in the series on HUVECS [2], the “concentration range that inhibits Huvecs” value is given as “low nanomolar range”.

Regarding `CC(=O)O[C@H]1C(=O)[C@@]2(C)[C@H]([C@H](OC(=O)c3ccccc3)[C@]3(O)C[C@H](OC(=O)[C@H](O)[C@@H](NC(=O)c4ccccc4)c4ccccc4)C(C)=C1C3(C)C)[C@]1(OC(C)=O)CO[C@@H]1C[C@@H]2O` [paclitaxel, reference compound], in the series with HUVECS [1] (setting [22]), the “absorbance at 490 nm” value was found to be 0.53 and the “absorbance at 595 nm” value was determined as 0.12. In the series on HUVECS [2], the “concentration range that inhibits Huvecs” value is given as “low nanomolar range”.

Take `CC[C@@]1(O)C(=O)OCc2c1cc1n(c2=O)Cc2cc3ccccc3nc2-1` [camptothecin, reference compound]: in the series with HUVECS [1] (setting [23]), the “absorbance at 490 nm” value was found to be 0.55 and the “absorbance at 595 nm” value is on record as 0.07. The “concentration range that inhibits Huvecs” value in the series with HUVECS [2] was “low nanomolar range”.
